Data reported in PMC7725003, “Systematically Studying the Optimal Amino Acid Distribution Patterns of the Amphiphilic Structure by Using the Ultrashort Amphiphiles” (Frontiers in Microbiology, 2020).
Where no end group is shown, it is not given here.

What was measured:
S. epidermidis 12228 = type: cell-based, Staphylococcus epidermidis; conditions: 12228, 24 h
Experimental: (§1) The antimicrobial activities of the peptides were measured using a method adapted from the National Committee for Clinical Laboratory Standards (NCCLS) with some modifications ([Chou et al., 2016]). The specific procedure for these assays has been previously described. In brief, the bacterial cells were grown to a mid-logarithmic phase and diluted in MHB to an ultimate concentration of 0.5–1 × 10^6 CFU mL^–1. Subsequently, the peptides were consecutively diluted in a 0.2% BSA solution and then added to a bacterial solution in a 96-well plate at identical volumes. After incubation for 24 h at 37°C, the MICs were determined to be the lowest peptide concentration that inhibited 95% of the bacterial growth by monitoring the absorbance at 492 nm using a microplate reader. Subsequently, 50 μL of each incubation mixture was further transferred to agar plates and incubated overnight. The minimum bactericidal concentrations (MBCs) were determined as the lowest peptide concentration that killed greater than 99.9% of the bacterial cells. Every assay was reproduced more than 3 times.

B. subtilis 63501 = type: cell-based, Bacillus subtilis; conditions: 63501, 24 h
Experimental: as §1

S. aureus 29213 [1] = test: Salt sensitivity assay (MIC); type: cell-based, Staphylococcus aureus; conditions: for MIC, FeCl3: 4 μM FeCl3; for MIC, NH4Cl: 6 μM NH4Cl; for MIC, ZnCl2: 8 μM ZnCl2; for MIC, MgCl2: 1 mM MgCl2; for MIC, CaCl2: 2 mM CaCl2; for MIC, KCl: 4.5 mM KCl; for MIC, NaCl: 150 mM NaCl; for MIC, Control: no added salt, three independent assays
Experimental: as §1
(§2) The salt sensitivities of the peptides were determined. E. coli ATCC 25922 and S. aureus ATCC 29213 were incubated in the presence of various ultimate concentrations of physiological salts (150 mM NaCl, 4.5 mM KCl, 6 μM NH4Cl, 8 μM ZnCl2, 1 mM MgCl2, 2mM CaCl2, and 4 μM FeCl3) according to our previous protocol ([Yang et al., 2019]). These tests were performed under the MICs, and three independent assays were performed.

S. typhimurium 14028 = type: cell-based, Salmonella typhimurium; conditions: 14028, 24 h
Experimental: as §1

S. typhimurium 7731 = type: cell-based, Salmonella typhimurium; conditions: 7731, 24 h
Experimental: as §1

[2] = tested on: Listeria monocytogenes CGMCC 1.1075; type: cell-based; conditions: CGMCC 1.1075, 24 h
Experimental: as §1

MRSA 43300 = type: cell-based, methicillin-resistant S. aureus; conditions: 43300, 24 h
Experimental: as §1

E. faecalis 29212 = type: cell-based, Enterococcus faecalis; conditions: 29212, 24 h
Experimental: as §1

S. aureus 25923 = type: cell-based, Staphylococcus aureus; conditions: 25923, 24 h
Experimental: as §1

S. aureus 29213 [3] = type: cell-based, Staphylococcus aureus; conditions: 29213, 24 h
Experimental: as §1

E. coli O78 = type: cell-based, Escherichia coli; conditions: O78, 24 h
Experimental: as §1

E. coli UB1005 = type: cell-based, Escherichia coli; conditions: UB1005, 24 h
Experimental: as §1

E. coli 25922 = type: cell-based, Escherichia coli; conditions: 25922, 24 h
Experimental: as §1

S. pullorum 7913 = type: cell-based, Salmonella pullorum; conditions: 7913, 24 h
Experimental: as §1

E. coli ATCC 25922 = test: Salt sensitivity assay (MIC); type: cell-based, Escherichia coli; conditions: for MIC, FeCl3: 4 μM FeCl3; for MIC, NH4Cl: 6 μM NH4Cl; for MIC, ZnCl2: 8 μM ZnCl2; for MIC, MgCl2: 1 mM MgCl2; for MIC, CaCl2: 2 mM CaCl2; for MIC, KCl: 4.5 mM KCl; for MIC, NaCl: 150 mM NaCl; for MIC, Control: no added salt, three independent assays
Experimental: as §1, §2

[4] = tested on: all of the tested bacterial strains; test: Geometric mean of MICs, all tested bacterial strains; type: cell-based; conditions: for GM, All: geometric mean of MICs across all tested strains; for TI, All: therapeutic index TI = MHC/GM MIC
Text: The antimicrobial activity of AMPs is the most decisive index for evaluating the clinical application of antimicrobial drugs. Many antimicrobial agents inhibit bacterial growth rather than kill the bacteria quickly, and long-term infections are pathogens that are not completely killed, which results in bacterial severe drug resistance. […] The geometric mean (GM) values of the MICs/MBCs of the two series across all of the tested bacterial strains are represented in Table 3, which depicts the average bacteriostatic/bactericidal level of a peptide.
as §1

P. aeruginosa 27853 = type: cell-based, Pseudomonas aeruginosa; conditions: 27853, 24 h
Experimental: as §1

Gram-positive bacteria = conditions: for GM, Gram-positive bacteria: geometric mean of MICs (Table 3); for TI, Gram-positive bacteria: therapeutic index TI = MHC/GM MIC
Experimental: (§3) The antimicrobial activity of AMPs is the most decisive index for evaluating the clinical application of antimicrobial drugs.
as §1, with “The minimum bactericidal concentrations (MBCs) were determined as the lowest peptide concentration that killed greater than 99.9% of the bacterial cells.” left out

Gram-negative bacteria = conditions: for GM, Gram-negative bacteria: geometric mean of MICs (Table 3); for TI, Gram-negative bacteria: therapeutic index TI = MHC/GM MIC
Experimental: as §3
as §1, with “The minimum bactericidal concentrations (MBCs) were determined as the lowest peptide concentration that killed greater than 99.9% of the bacterial cells.” left out

## WRRWRWWRW-NH2 [W12]
S. epidermidis 12228
  MBC: 4 µM
  MIC: 2 µM
B. subtilis 63501
  MBC: 2 µM
  MIC: 1 µM
S. aureus 29213 [1]
  MIC, FeCl3: 2 µM
  MIC, NH4Cl: 2 µM
  MIC, ZnCl2: 2 µM
  MIC, MgCl2: 2 µM
  MIC, CaCl2: 2 µM
  MIC, KCl: 2 µM
  MIC, NaCl: 4 µM
  MIC, Control: 2 µM
S. typhimurium 14028
  MBC: 8 µM
  MIC: 4 µM
S. typhimurium 7731
  MBC: 16 µM
  MIC: 8 µM
[2]
  MBC: 4 µM
  MIC: 2 µM
MRSA 43300
  MBC: 4 µM
  MIC: 2 µM
E. faecalis 29212
  MBC: 8 µM
  MIC: 4 µM
S. aureus 25923
  MBC: 4 µM
  MIC: 2 µM
S. aureus 29213 [3]
  MBC: 4 µM
  MIC: 2 µM
E. coli O78
  MBC: 8 µM
  MIC: 4 µM
E. coli UB1005
  MBC: 8 µM
  MIC: 4 µM
E. coli 25922
  MBC: 8 µM
  MIC: 4 µM
S. pullorum 7913
  MBC: 8 µM
  MIC: 4 µM
E. coli ATCC 25922
  MIC, FeCl3: 4 µM
  MIC, NH4Cl: 4 µM
  MIC, ZnCl2: 2 µM
  MIC, MgCl2: 4 µM
  MIC, CaCl2: 16 µM
  MIC, KCl: 4 µM
  MIC, NaCl: 32 µM
  MIC, Control: 4 µM
[4]
  GM, All: 3.08 µM
  TI, All: 41.56
P. aeruginosa 27853
  MBC: 8 µM
  MIC: 4 µM
Gram-positive bacteria
  GM, Gram-positive bacteria: 2.00 µM
  TI, Gram-positive bacteria: 64.00
Gram-negative bacteria
  GM, Gram-negative bacteria: 4.32 µM
  TI, Gram-negative bacteria: 29.63

## RRWWWWRRW-NH2 [W7]
S. epidermidis 12228
  MBC: 4 µM
  MIC: 2 µM
B. subtilis 63501
  MBC: 2 µM
  MIC: 1 µM
S. aureus 29213 [1]
  MIC, FeCl3: 8 µM
  MIC, NH4Cl: 4 µM
  MIC, ZnCl2: 4 µM
  MIC, MgCl2: 4 µM
  MIC, CaCl2: 4 µM
  MIC, KCl: 4 µM
  MIC, NaCl: 4 µM
  MIC, Control: 4 µM
S. typhimurium 14028
  MBC: 16 µM
  MIC: 8 µM
S. typhimurium 7731
  MBC: 32 µM
  MIC: 16 µM
[2]
  MBC: 4 µM
  MIC: 2 µM
MRSA 43300
  MBC: 4 µM
  MIC: 2 µM
E. faecalis 29212
  MBC: 16 µM
  MIC: 8 µM
S. aureus 25923
  MBC: 4 µM
  MIC: 2 µM
S. aureus 29213 [3]
  MBC: 8 µM
  MIC: 4 µM
E. coli O78
  MBC: 16 µM
  MIC: 8 µM
E. coli UB1005
  MBC: 8 µM
  MIC: 4 µM
E. coli 25922
  MBC: 8 µM
  MIC: 4 µM
S. pullorum 7913
  MBC: 8 µM
  MIC: 4 µM
E. coli ATCC 25922
  MIC, FeCl3: 8 µM
  MIC, NH4Cl: 4 µM
  MIC, ZnCl2: 4 µM
  MIC, MgCl2: 4 µM
  MIC, CaCl2: 8 µM
  MIC, KCl: 8 µM
  MIC, NaCl: 8 µM
  MIC, Control: 4 µM
[4]
  GM, All: 4.00 µM
  TI, All: 64.00
P. aeruginosa 27853
  MBC: 32 µM
  MIC: 4 µM
Gram-positive bacteria
  GM, Gram-positive bacteria: 2.44 µM
  TI, Gram-positive bacteria: 104.92
Gram-negative bacteria
  GM, Gram-negative bacteria: 5.88 µM
  TI, Gram-negative bacteria: 43.54

## RRWWWRWRW-NH2 [W8]
S. epidermidis 12228
  MBC: 4 µM
  MIC: 2 µM
B. subtilis 63501
  MBC: 2 µM
  MIC: 1 µM
S. aureus 29213 [1]
  MIC, FeCl3: 2 µM
  MIC, NH4Cl: 4 µM
  MIC, ZnCl2: 4 µM
  MIC, MgCl2: 4 µM
  MIC, CaCl2: 4 µM
  MIC, KCl: 1 µM
  MIC, NaCl: 2 µM
  MIC, Control: 2 µM
S. typhimurium 14028
  MBC: 8 µM
  MIC: 4 µM
S. typhimurium 7731
  MBC: 8 µM
  MIC: 4 µM
[2]
  MBC: 4 µM
  MIC: 2 µM
MRSA 43300
  MBC: 4 µM
  MIC: 2 µM
E. faecalis 29212
  MBC: 8 µM
  MIC: 4 µM
S. aureus 25923
  MBC: 4 µM
  MIC: 2 µM
S. aureus 29213 [3]
  MBC: 4 µM
  MIC: 2 µM
E. coli O78
  MBC: 8 µM
  MIC: 4 µM
E. coli UB1005
  MBC: 8 µM
  MIC: 4 µM
E. coli 25922
  MBC: 8 µM
  MIC: 4 µM
S. pullorum 7913
  MBC: 4 µM
  MIC: 2 µM
E. coli ATCC 25922
  MIC, FeCl3: 2 µM
  MIC, NH4Cl: 4 µM
  MIC, ZnCl2: 4 µM
  MIC, MgCl2: 16 µM
  MIC, CaCl2: 8 µM
  MIC, KCl: 16 µM
  MIC, NaCl: 32 µM
  MIC, Control: 4 µM
[4]
  GM, All: 2.71 µM
  TI, All: 47.23
P. aeruginosa 27853
  MBC: 8 µM
  MIC: 4 µM
Gram-positive bacteria
  GM, Gram-positive bacteria: 2.00 µM
  TI, Gram-positive bacteria: 64.00
Gram-negative bacteria
  GM, Gram-negative bacteria: 3.43 µM
  TI, Gram-negative bacteria: 37.32
